Paper PMC10065799, “High-throughput profiling of sequence recognition by tyrosine kinases and SH2 domains using bacterial peptide display” (eLife, 2023)
Values belong to the sequence of their own block, whether it stands above or below them.

What was measured:
Assay in all cases: pTyr-Var library bacterial peptide display kinase screen (enrichment scores)
c-Abl kinase domain = biological target: T1, c-Abl kinase domain (Mus musculus, UniProt P00520); assay type: biochemical;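 for screen: log2 fold change in enrichment of variant over reference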
T1 sequence (P00520 242-493 limits assumed): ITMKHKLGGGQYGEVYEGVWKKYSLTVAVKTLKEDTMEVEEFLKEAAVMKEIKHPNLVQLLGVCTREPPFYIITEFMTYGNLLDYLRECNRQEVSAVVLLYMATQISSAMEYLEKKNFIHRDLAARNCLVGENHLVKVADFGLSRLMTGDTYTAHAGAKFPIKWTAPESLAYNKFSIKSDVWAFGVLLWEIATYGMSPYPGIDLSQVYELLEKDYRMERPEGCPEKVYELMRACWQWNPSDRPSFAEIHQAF

Fer kinase domain = assay type: biochemical, mouse; conditions: sheet "Fer"; value of the variant peptide against its reference peptide in the pTyr-Var library screen with Fer
EPHB1 kinase domain = assay type: biochemical, human; conditions: sheet EPHB1; effect of the variant peptide relative to its reference peptide in the pTyr-Var library screen (enrichment scores)
c-Src kinase domain = c-Src kinase domain (Homo sapiens, UniProt P12931); assay type: biochemical; conditions: sheet "Src";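 note: log2 fold change in enrichment of variant over reference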
EPHB2 kinase domain = assay type: biochemical, human; conditions: sheet EPHB2; effect of variant peptide relative to its reference peptide in the pTyr-Var library screen (enrichment scores)
[1] = fig5-data2, sheet "Abl", Screen for the variant/reference peptide pair, pTyr-Var library
[2] = sheet "Abl", effect of variant peptide relative to its reference peptide in pTyr-Var library screen (enrichment)
[3] = variant peptide versus its reference peptide in the pTyr-Var library screen
[4] = effect of the variant peptide relative to its reference peptide in the pTyr-Var library screen

Screen (c-Abl kinase domain; [1]): -1.954
Sequence: SLDLSYFHTSS [EMD_Y181_P183H_YF]

Screen (Fer kinase domain): 3.7
Screen (EPHB1 kinase domain): 1.13
Sequence: NHQFDYTFHWT [CSNK1A1_Y294_D297H_YF]

Screen (c-Abl kinase domain; [2]): 1.58
Sequence: DTQNSYWCATS [TSC1_Y304_G305W]

Screen (c-Abl kinase domain; [2]): 1.101
Sequence: GCKNRYDEDKP [THAP1_Y14_K16E]

Screen (c-Abl kinase domain; [2]): 3.326
Sequence: GEFFRYLAEVA [YWHAG_Y133_D129E_YF]

Sequence: SEHLIYLEFKS [RASGRP1_Y215_T214I]
Screen (c-Abl kinase domain; [1]): 0.2716
Screen (c-Src kinase domain; [3]): 0.01051
Screen (EPHB1 kinase domain): 0.7598

Sequence: ACQSLYGGFVE [MVD_Y164_R161Q]
Screen (c-Src kinase domain; [4]): 0.09261
Screen (EPHB2 kinase domain): 1.328

Screen (c-Abl kinase domain; [1]): -0.6307
Sequence: QRVLLYVQRET [GRHL3_Y518_R520Q]

Screen (EPHB1 kinase domain): 2.943
Screen (EPHB2 kinase domain): 1.999
Sequence: NNHGNYIVHLG [ETFDH_Y172_R175H]

Screen (c-Abl kinase domain; [2]): -2.941
Sequence: TKGNEYVFRVA [TTN_Y30829_E30825K]

Sequence: PNRILYGDFQQ [MYH7_Y715_R719Q]
Screen (c-Src kinase domain; [3]): -0.8592

Screen (EPHB2 kinase domain): -1.049
Sequence: LEQDEYALHSH [HADHB_Y244_R247H]

Sequence: PVQAVYQKVVA [HBB_Y131_A130V]
Screen (c-Src kinase domain; [4]): 1.787

Sequence: LINSVYGCSRQ [TMPRSS6_Y290_T287N]
Screen (c-Src kinase domain; [3]): 1.631

Sequence: LPEHPYHSRPR [NDUFA8_Y142_N140H]
Screen (c-Abl kinase domain; [1]): -0.8491
Screen (c-Src kinase domain; [3]): -0.5324
Screen (EPHB2 kinase domain): 1.643

Screen (c-Abl kinase domain; [1]): 0.9727
Sequence: SENFTYIWWLN [PSG4_Y271_K267E_YF]

Screen (EPHB1 kinase domain): -0.841
Screen (EPHB2 kinase domain): -0.6493
Sequence: HEEDNYIEMIP [NWD2_Y566_L569M]

Screen (c-Abl kinase domain; [2]): 2.774
Sequence: IVRSLYEDQED [VHL_Y185_L188Q]

Sequence: PVADPYDQSFE [P38A Y323]
Enrichment score (mean) (c-Abl kinase domain; pTyr-Var library bacterial peptide display screen with c-Abl, 11-residue peptides (SITE_+/-5_AA) of annotated Abl substrate sites, sheet "Abl substrates", mean): 2.375

Screen (Fer kinase domain): -3.509
Screen (EPHB1 kinase domain): -2.287
Sequence: EELLRYAIVTP [POC5_Y37_H36R]

Sequence: VKANTYEKFWL [GATM_Y100_P105L_YF]
Screen (Fer kinase domain): 2.288
Screen (c-Src kinase domain; [4]): -1.276

Screen (c-Abl kinase domain; [1]): -0.5052
Sequence: TKLKDYFIFNK [CCDC42_Y149_A144T_YF]

Screen (Fer kinase domain): -0.4486
Sequence: MASISYDFCRV [BST2_Y6_T4I_YF]

Screen (c-Abl kinase domain; [2]): -2.078
Sequence: SFSGEYGSGGG [ZG16_Y30_G32S_YF]

Sequence: NTGGFYDLFGG [PTPN11_Y63_D61G_YF]
Screen (Fer kinase domain): 1.072
Screen (c-Src kinase domain; [3]): -0.08944

Screen (Fer kinase domain): 1.122
Sequence: EALDFYGEVRI [PTEN_Y155_T160I]

Screen (EPHB2 kinase domain): -0.4432
Sequence: LHVKMYNFLRS [ADGRG7_Y760_R756H]

Screen (c-Abl kinase domain; [2]): -2.971
Sequence: KACNPYKPPGP [TTN_Y25826_T25821K]

Screen (EPHB1 kinase domain): 1.02
Sequence: QDEHGYISLCF [HSPB1_Y133_R136L]

Sequence: AGARMYGVLPW [PLP1_Y207_D203G]
Screen (c-Src kinase domain; [3]): -0.8816
Screen (EPHB2 kinase domain): -1.831

Screen (c-Abl kinase domain; [2]): -1.397
Sequence: DPNQQYFIAMD [TBX15_Y159_H156N_YF]

Screen (c-Abl kinase domain; [1]): -0.1377
Sequence: EWLRRYLKNGK [HLA-C_Y195_E197K]

Sequence: HGEAVYSRDCV [XPC_Y676_R671H]
Screen (c-Abl kinase domain; [2]): 1.031
Screen (c-Src kinase domain; [3]): 0.7041

Sequence: FQKDVYNIPPS [NEDD9_Y177_D178N_YF]
Screen (c-Src kinase domain; [3]): -0.2537
Screen (EPHB2 kinase domain): -2.279

Screen (c-Abl kinase domain; [1]): -0.8395
Sequence: EAVKNYTEKRG [PBRM1_Y672_D674E]

Sequence: PADQAYSWFQH [NDST1_Y711_R709Q_YF]
Screen (Fer kinase domain): 0.5054
Screen (c-Src kinase domain; [3]): 1.532

Screen (Fer kinase domain): 2.731
Screen (EPHB2 kinase domain): 1.843
Sequence: TKDTFYQQPMF [GBA_Y451_K452Q]

Sequence: KFADVYVGICL [B3GALNT1_Y269_E266A]
Screen (Fer kinase domain): -1.445
Screen (c-Src kinase domain; [4]): -1.369

Screen (c-Abl kinase domain; [1]): 0.663
Sequence: HCFAAYFQQGD [GPI_Y351_R347C]

Screen (Fer kinase domain): -2.144
Screen (EPHB2 kinase domain): -4.573
Sequence: LTVVIYVLVGR [EPHA3_Y561_I564V]

Screen (c-Abl kinase domain; [2]): 1.481
Sequence: ELAVNYQEQAS [SLC9A9_Y591_I589V]

Screen (c-Abl kinase domain; [1]): 1.494
Sequence: ARKCKYFKKHE [NFIX_Y40_R38C]

Screen (c-Abl kinase domain; [1]): -2.162
Screen (EPHB1 kinase domain): 0.4195
Sequence: LDLPGYCLLRE [CCDC116_Y291_P293L]

Screen (EPHB2 kinase domain): 0.7041
Sequence: PHMQTYEVDHN [SDHB_Y61_L65H]

Sequence: LITTLYISFLG [KCNQ1_Y267_G269S]
Screen (c-Src kinase domain; [4]): -1.106

Sequence: AVARMYGVLPW [PLP1_Y207_D203V]
Screen (c-Src kinase domain; [3]): -1.597
Screen (EPHB2 kinase domain): -2.007

Screen (c-Abl kinase domain; [1]): -0.2234
Sequence: HPAGNYSLSSV [ARFGAP3_Y473_Q468H]

Screen (EPHB1 kinase domain): -0.2324
Sequence: DGPVNYEEFVQ [CALM2_Y139_Q136P]

Screen (Fer kinase domain): 3.343
Sequence: GMTLSYLFWEP [NDUFS8_Y74_R77W]

Screen (c-Abl kinase domain; [1]): -0.9911
Sequence: NVSILYTASQA [CTNNA1_Y222_P219S]
